System: mdx mouse EDL muscle
Assay: Phosphoprotein array analysis (Cell Signaling Phospho Antibody Array)
Conditions: T vs C
Procedure: mdx mouse EDL muscle was prepared for ex vivo analysis as described (n = 5). Muscles were incubated for 1 hour with DMSO or EDG-5506 (5 μM) and then flash frozen in liquid nitrogen. Tissue preparation and analysis were performed as recommended by the manufacturer (Cell Signaling Phospho Antibody Array, Full Moon Biosystems).

With `O=c1ccc(-c2cnc(OCC(F)(F)F)nc2)nn1Cc1cncc(F)c1` [EDG-5506] the “Fold Change between Samples T/C: Tau (Phospho-Ser396)” value was 0.90, the “Fold Change between Samples T/C: VEGFR2 (Phospho-Tyr1175)” value was 0.84 and the “Fold Change between Samples T/C: Zap-70 (Phospho-Tyr319)” value was 1.04. The “Fold Change between Samples T/C: c-Jun (Phospho-Ser73)” value was 0.91, the “Fold Change between Samples T/C: p44/42 MAP Kinase (Phospho-Tyr204)” value was 0.88 and the “Fold Change between Samples T/C: p53 (Phospho-Ser15)” value was 0.20. The “Ratio (T/C): 4E-BP1 (Phospho-Thr45) to total 4E-BP1 (Ab-45)” value (phospho/total) was 0.8337, the “Ratio (T/C): 14-3-3 theta/tau (Phospho-Ser232) to total 14-3-3 zeta/delta (Ab-232)” value (phospho/total) was 0.9814 and the “Ratio (T/C): ACC1 (Phospho-Ser80) to total ACC1 (Ab-80)” value (phospho/total) was 0.9544. For the same compound, the “Ratio (T/C): AKT1 (Phospho-Ser473) to total AKT1 (Ab-308)” value (phospho/total) was 0.8575, the “Ratio (T/C): AKT1S1 (Phospho-Thr246) to total AKT1S1 (Ab-246)” value (phospho/total) was 1.16 and the “Ratio (T/C): AMPKbeta1 (Phospho-Ser182) to total AMPKbeta1 (Ab-182)” value (phospho/total) was 0.902. The “Ratio (T/C): ASK1 (Phospho-Ser966) to total ASK1 (Ab-966)” value (phospho/total) was 0.799, the “Ratio (T/C): ATF2 (Phospho-Ser62/44) to total ATF2 (Ab-62/44)” value (phospho/total) was 0.3856 and the “Ratio (T/C): Abl1 (Phospho-Thr754/735) to total Abl1 (Ab-754/735)” value (phospho/total) was 1.124. For the same compound, the “Ratio (T/C): Actin Pan(a/b/g) (Phospho-Tyr55/53) to total Actin Pan(a/b/g) (Ab-55/53)” value (phospho/total) was 0.9642, the “Ratio (T/C): B-RAF (Phospho-Ser446) to total B-RAF (Ab-598)” value (phospho/total) was 0.9669 and the “Ratio (T/C): BAX (Phospho-Thr167) to total Bax” value (phospho/total) was 0.8854. For the same compound, the “Ratio (T/C): BCL-XL (Phospho-Ser62) to total BCL-XL (Ab-47)” value (phospho/total) was 0.5743, the “Ratio (T/C): BID (Phospho-Ser78) to total BID (Ab-78)” value (phospho/total) was 0.7661 and the “Ratio (T/C): BLNK (Phospho-Tyr96) to total BLNK (Ab-96)” value (phospho/total) was 0.53. For the same compound, the “Ratio (T/C): BRCA1 (Phospho-Ser1423) to total BRCA1 (Ab-1524)” value (phospho/total) was 0.7749, the “Ratio (T/C): CDC25C (Phospho-Ser216) to total CDC25C (Ab-216)” value (phospho/total) was 0.4323 and the “Ratio (T/C): CDK1/CDC2 (Phospho-Tyr15) to total CDK1/CDC2 (Ab-15)” value (phospho/total) was 0.7557. For the same compound, the “Ratio (T/C): CREB (Phospho-Ser133) to total CREB (Ab-133)” value (phospho/total) was 1.041, the “Ratio (T/C): CaMK2-beta/gamma/delta (Phospho-Thr287) to total CaMK2-beta/gamma/delta (Ab-287)” value (phospho/total) was 0.6524 and the “Ratio (T/C): CaMK2A (Phospho-Thr286) to total CaMK2A (Ab-286)” value (phospho/total) was 0.848. The “Ratio (T/C): Caspase 1 (Phospho-Ser376) to total Caspase 1 (Ab-376)” value (phospho/total) was 0.6605, the “Ratio (T/C): Caspase 8 (Phospho-Ser347) to total Caspase 8 (Ab-347)” value (phospho/total) was 1.051 and the “Ratio (T/C): Caspase 9 (Phospho-Ser196) to total Caspase 9 (Ab-196)” value (phospho/total) was 0.4054. The “Ratio (T/C): Catalase (Phospho-Tyr385) to total Catalase (Ab-385)” value (phospho/total) was 0.7422, the “Ratio (T/C): Catenin beta (Phospho-Thr41/Ser45) to total Catenin beta (Ab-37)” value (phospho/total) was 0.6858 and the “Ratio (T/C): Chk1 (Phospho-Ser286) to total Chk1 (Ab-286)” value (phospho/total) was 0.7615. The “Ratio (T/C): Chk2 (Phospho-Thr68) to total Chk2 (Ab-68)” value (phospho/total) was 0.4403, the “Ratio (T/C): CrkII (Phospho-Tyr221) to total CrkII (Ab-221)” value (phospho/total) was 0.7162 and the “Ratio (T/C): Cyclin D1 (Phospho-Thr286) to total Cyclin D1 (Ab-286)” value (phospho/total) was 1.068. The “Ratio (T/C): Cyclin E1 (Phospho-Thr77) to total Cyclin E1 (Ab-77)” value (phospho/total) was 0.8189, the “Ratio (T/C): DARPP-32 (Phospho-Thr34) to total DARPP-32 (Ab-34)” value (phospho/total) was 0.8988 and the “Ratio (T/C): EEF2 (Phospho-Thr56) to total EEF2 (Ab-56)” value (phospho/total) was 1.324. For the same compound, the “Ratio (T/C): EGFR (Phospho-Tyr869) to total EGFR (Ab-1172)” value (phospho/total) was 1.314, the “Ratio (T/C): EGFR (Phospho-Tyr1172) to total EGFR (Ab-1172)” value (phospho/total) was 0.9484 and the “Ratio (T/C): Elk1 (Phospho-Ser383) to total Elk1 (Ab-389)” value (phospho/total) was 0.8083. The “Ratio (T/C): FAK (Phospho-Ser910) to total FAK (Ab-910)” value (phospho/total) was 0.6171, the “Ratio (T/C): FGFR1 (Phospho-Tyr654) to total FGFR1 (Ab-766)” value (phospho/total) was 1.2323 and the “Ratio (T/C): FKHRL1/FOXO3A (Phospho-Ser253) to total FKHRL1/FOXO3A (Ab-253)” value (phospho/total) was 0.5092. The “Ratio (T/C): FOXO1/3/4-pan (Phospho-Thr24/32) to total FOXO1/3/4-pan (Ab-24/32)” value (phospho/total) was 0.8412, the “Ratio (T/C): GRK2 (Phospho-Ser29) to total GRK2 (Ab-29)” value (phospho/total) was 0.6549 and the “Ratio (T/C): GSK3 beta (Phospho-Ser9) to total GSK3 beta” value (phospho/total) was 0.6837. The “Ratio (T/C): HDAC1 (Phospho-Ser421) to total HDAC1 (Ab-421)” value (phospho/total) was 1.576, the “Ratio (T/C): HDAC2 (Phospho-Ser394) to total HDAC2 (Ab-394)” value (phospho/total) was 0.8716 and the “Ratio (T/C): HER2 (Phospho-Tyr1221/Tyr1222) to total HER2 (Ab-1221/1222)” value (phospho/total) was 0.7289. The “Ratio (T/C): HER2 (Phospho-Tyr1248) to total HER2 (Ab-1221/1222)” value (phospho/total) was 0.9858, the “Ratio (T/C): HSP27 (Phospho-Ser82) to total HSP27 (Ab-82)” value (phospho/total) was 1.177 and the “Ratio (T/C): HSP90B (Phospho-Ser226) to total HSP90B (Ab-254)” value (phospho/total) was 0.9521. For the same compound, the “Ratio (T/C): IKK alpha/beta (Phospho-Ser180/181) to total IKK alpha/beta (Ab-180/181)” value (phospho/total) was 0.9407, the “Ratio (T/C): IKK-beta (Phospho-Tyr188) to total IKK-beta (Ab-199)” value (phospho/total) was 0.6267 and the “Ratio (T/C): IKK-beta (Phospho-Tyr199) to total IKK-beta (Ab-199)” value (phospho/total) was 0.8262. For the same compound, the “Ratio (T/C): IKK-gamma (Phospho-Ser31) to total IKK-gamma (Ab-31)” value (phospho/total) was 1.02, the “Ratio (T/C): IL-4R/CD124 (Phospho-Tyr497) to total IL-4R/CD124 (Ab-497)” value (phospho/total) was 0.9976 and the “Ratio (T/C): IL-10R-alpha (Phospho-Tyr496) to total IL-10R-alpha (Ab-496)” value (phospho/total) was 0.6514. For the same compound, the “Ratio (T/C): IRS-1 (Phospho-Ser312) to total IRS-1 (Ab-312)” value (phospho/total) was 0.9305, the “Ratio (T/C): IkB-alpha (Phospho-Ser32/36) to total IkB-alpha (Ab-32/36)” value (phospho/total) was 1.258 and the “Ratio (T/C): IkB-epsilon (Phospho-Ser22) to total IkB-epsilon (Ab-22)” value (phospho/total) was 0.98.

— paper PMC10178848, “Modulating fast skeletal muscle contraction protects skeletal muscle in animal models of Duchenne muscular dystrophy” (The Journal of Clinical Investigation, 2023)
